Experimental data reported in patent publication US20230416247A1, “DRUG-LIKE MOLECULES AND METHODS FOR THE THERAPEUTIC TARGETING OF MICRORNA-21” (University of Washington, priority 2020, published 2023).
“Also recorded” adds a separate entry of the source.

Key:
[1] = test system: pre-miR-21 processing by Dicer-TRBP; test: Dicer/TRBP in vitro processing of pre-miR-21; assay type: biochemical, human; conditions: for inhibition of Dicer processing: pre-miR-21 compared with pre-Let7
Description: (§1) In order to further assess the biochemical activity of our compounds, processing of pre-miR-21 and pre-Let7 by Dicer-TRBP in vitro was compared. FIGS. 9A and 9B show selective response in the rate of processing under early phase reaction conditions, before significant product builds up, for pre-miR21 compared to pre-Let7.
(§2) The results are specific to the initial rates (0.25-5 min) of the reaction. […] This is inevitable because Dicer binds the product tightly. This assay and method of inhibiting miR-21 synthesis is different than typical enzymatic assays. First, the small molecule is targeting the substrate of the enzymatic assay. High affinity compounds that change the structure of the substrate may reduce processing but might not inhibit processing completely. Rather, changes in the specificity constant (kcat/Km), are a better measure of small molecule inhibition than traditional Ki's.
Dicer/TRBP. The Dicer/TRBP enzyme complex was expressed and purified using published methods and stored at −80° C. in 20 μL aliquots until needed. Briefly, the gene encoding human full-length Dicer was inserted into a modified pFastBac1 vector (Invitrogen), which has an N-terminal glutathione-S-transferase (GST) tag. The GST fusion proteins were expressed in HiFive insect cells following standard procedures and isolated by glutathione affinity chromatography using buffer A (20 mM Tris-HCl pH 8.0, 150 mM NaCl, 2 mM DTT). After on-column cleavage by Tobacco Etch Virus (TEV) protease overnight, the proteins were eluted, concentrated and loaded onto Superdex 200 GL column equilibrated in buffer A. Sequences coding for human full-length TRBP2 were cloned into a modified pET28a vector with an N-terminal GB1 tag. The clones were transformed into Rosetta 2 cells and the transformants were grown in LB media at 37° C. until the cells reached a density corresponding to an OD reading of 0.8 at 600 nm. Protein expression was induced by addition of 0.2 mM IPTG at 18° C. for 20 hours. The cells were harvested, pelleted and resuspended in 20 mM Tris-HCl pH 8.0, 500 mM NaCl, mM imidazole, with 5 mM β-ME. […]

pre-miR-21 = test: 1D 1H imino NMR / NOESY titration of pre-miR-21 with compound; assay type: binding, human; conditions: for closing of the apical loop of pre-miR-21 (new imino signals / base pairs): 1 mM pre-miR-21 titrated to 1.5 mM compound, 800 MHz, 5° C., 50 mM deuterated Tris pH 6.5, 50 mM NaCl; for binding to pre-miR-21 (NMR data): FIGS. 7A-7D
Description: All data were collected at 800 Mhz and at 5° C. in buffer containing 50 mM deuterated Tris at pH 6.5 and 50 mM NaCl.
Remarkably, the compounds have the unique capacity to ‘close the loop’ of pre-miR-21. This large change in RNA structure is shown in FIGS. 7A-7D, compared to the unbound RNA which are shown at the bottom of FIGS. 7A and 7C. […] The effect is very similar to what is observed with mutations that stabilize the loop structure by inducing stable formations of base pairs in place of unstable base pairs, and that also reduce miR-21 expression in both biochemical experiments and in cells, as reported in the literature. Accordingly, the compounds of formula (I) are specific pre-miR-21 binding compounds with the capacity to inhibit enzymatic processing of this oncogenic miRNA sequence.
RNA Transcription. All RNAs for ligand screening and structural or biochemical work were prepared in house using in vitro transcription on a large scale (typically 10 mL). RNA transcription and purification protocols used purified DNA oligonucleotide templates (IDT) and T7 RNA polymerase. Briefly, 1 mL of 8 μM TOP DNA (5′-CTATAGTGAGTCGTATTA-3′ (SEQ ID NO: 1)), corresponding to the phage T7 RNA polymerase promoter region, was annealed to 80 μL of 100 μM template sequences with 13 mM MgCl2, heated to 95° C. for […] then allowed to anneal to room temperature over 20 min. The annealing mixture was incubated with 5 mM of each of the four NTPs (ATP, GTP, UTP and CTP, from Sigma), transcription buffer, 8% PEG-8000 and 35 mM magnesium chloride with 0.4 mg/mL T7 RNA polymerase expressed and purified using established methods. All RNA samples are purified from crude transcriptions by 20% denaturing polyacrylamide gel electrophoresis (PAGE), electroeluted and concentrated by ethanol precipitation. The samples are re-dissolved in 12 mL of high salt wash (700 mM NaCl, 200 mM KCl, in 10 mM potassium phosphate at pH 6.5, with 10 μM EDTA to chelate any divalent ions), concentrated using Centriprep conical concentrators ([…] MWC, Millipore). The RNA was then slowly exchanged into low salt storage buffer (10 mM potassium phosphate at pH 6.5, with 10 mM NaCl and 10 μM EDTA). Prior to NMR experiments, all RNA samples were finally desalted using NAP-10 gravity columns, lyophilized and re-dissolved in ‘screening buffer’ or ‘structure buffer’ (see below), then annealed by heating for 4 min to 90° C. and snap cooling at −20° C.

[2] = test system: pre-Let7 processing by Dicer-TRBP; test: Dicer/TRBP in vitro processing of pre-Let7; assay type: biochemical, human; conditions: 2 μM compound vs no compound
Description: as §1, §2
Dicer/TRBP. The Dicer/TRBP enzyme complex was expressed and purified using published methods and stored at −80° C. in 20 μL aliquots until needed. Briefly, the gene encoding human full-length Dicer was inserted into a modified pFastBac1 vector (Invitrogen), which has an N-terminal glutathione-S-transferase (GST) tag. […] The clones were transformed into Rosetta 2 cells and the transformants were grown in LB media at 37° C. until the cells reached a density corresponding to an OD reading of 0.8 at 600 nm. […]

Row | SMILES | inhibition of Dicer processing [1] | closing of the apical loop of pre-miR-21 (new imino signals / base pairs) (pre-miR-21) | binding to pre-miR-21 (NMR data) (pre-miR-21) | pre-miR-21 processing by DICER/TRBP ([1]; 2 μM compound vs no compound, initial rates) | DICER/TRBP activity on pre-Let7 [2]
1 | O=c1[nH]c(Nc2ccc(N3CCNCC3)cn2)nc2cnccc12 [Compound 30] | specifically inhibit Dicer processing | emergence of new imino NH chemical shift resonances for the apical loop portion | bind to pre-miR-21 strongly |  | 
2 | O=c1[nH]c(Nc2ccc(N3CCNCC3)cn2)nc2cccnc12 [Compound 25] | specifically inhibit Dicer processing | formation of the putative tandem UG/GU wobble pair in the apical loop; also recorded: emergence of new imino NH chemical shift resonances for the apical loop portion | bind to pre-miR-21 strongly | processing activity is visibly reduced; also recorded: visibly reduced pre-miR-21 processing | no significant difference in activity is observed
